The values below come from patent US20100035929A1, “UNNATURAL DISPYRIN ANALOGUES, PREPARATION AND USES THEREOF” (priority 2008, published 2010).

pIC50, pKi: −log10 of the molar value. Where two headings read alike, the source gives them in different places.

The target of data set [1] is T1, human H3 receptor (Homo sapiens, UniProt Q9Y5N1). Description: H3 affinity, radioligand binding assay employing [3H](R)-α-methylhistamine. An excerpt:
(§1) In one aspect, H3 affinity (Ki) and inhibition (IC50) can be determined in 5-point concentration response curves. Using data obtained from such methods, SAR can be established.

For data set [2], the target named is T1, human H3 receptor. Description: H3 antagonist activity / inhibition (IC50). The data set is classed as biochemical.
Source text: as §1

In data set [3] the test system is calcium and potassium ion channels, including hERG. Put plainly: MDS Pharma Services radioligand binding panel, initial screen at single 10 μM concentration: ion channels. As to conditions: human, read-out: inhibition of a number of calcium and potassium ion channels, including hERG. The protocol: (§2) Multiple screening avenues were pursued to identify the biological activity of dispyrin. Dispyrin was submitted to the screening deck of the Molecular Library Screening Network (MLSCN) and was evaluated against several GPCR targets (M1, M4, D1/D5, mGluR5, mGluR4) in agonist, antagonist and potentiator mode. Utilizing panels of radioligand binding assays from several companies, dispyrin was evaluated against >200 discrete molecular targets over the course of two months. The MDS Pharma Services panel identified multiple activities for dispyrin. […] Other modest activities at the 50-60% range at 10 u.M included other GPCRs and ion channels, but none with significant activity (no Kis or IC50s<10 μM).
Background: Block of hERG is tested as a sign of cardiac risk.

Data set [4] relates to other GPCRs and ion channels. Put plainly: MDS Pharma Services radioligand binding panel, initial screen at single 10 μM concentration: other targets. As to conditions: at 10 μM; none with significant activity (no Kis or IC50s<10 μM). The protocol: as §2
[5] abbreviates: 5-point concentration response curves, read-out: H3 Ki.
Where [6] appears, read: 5-point concentration response curves, read-out: H3 IC50.

T1 sequence (Q9Y5N1 whole entry): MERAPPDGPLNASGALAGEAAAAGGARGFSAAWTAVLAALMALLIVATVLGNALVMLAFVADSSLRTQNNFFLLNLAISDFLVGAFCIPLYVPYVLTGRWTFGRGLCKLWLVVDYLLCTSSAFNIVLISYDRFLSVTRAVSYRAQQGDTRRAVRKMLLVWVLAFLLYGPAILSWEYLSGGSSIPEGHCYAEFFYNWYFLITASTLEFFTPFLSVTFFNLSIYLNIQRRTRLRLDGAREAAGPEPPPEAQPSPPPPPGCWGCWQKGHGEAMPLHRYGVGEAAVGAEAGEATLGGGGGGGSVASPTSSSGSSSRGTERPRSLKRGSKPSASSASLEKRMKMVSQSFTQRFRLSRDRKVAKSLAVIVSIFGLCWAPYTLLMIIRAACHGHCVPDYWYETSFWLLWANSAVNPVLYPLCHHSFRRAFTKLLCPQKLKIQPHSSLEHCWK

As usually defined, the pKi is −log10 of the Ki, conventionally taken in molar units. In general, pIC50 refers to −log10 of the IC50, conventionally taken in molar units. As for `CN1CCCC(COc2ccc(CCNC(=O)c3ccc[nH]3)cc2Br)C1` (stereo not shown) [N-(3-bromo-4-((1-methylpiperidin-3-yl)methoxy)phenethyl)-1H-pyrrole-2-carboxamide], the negative-log Ki (pKi) at human H3 receptor [1] (setting [5]) was 5.82. Further, the pIC50 on human H3 receptor [2] (setting [6]) is 5.44.

The inhibition is the share of the control response that was lost under treatment. Regarding `CN(C)CCCOc1ccc(CCNC(=O)c2cc(Br)c[nH]2)cc1Br` [dispyrin, 4-bromo-N-(3-bromo-4-(3-(dimethylamino)propoxy)phenethyl)-1H-pyrrole-2-carboxamide], the pKi at human H3 receptor [1] (setting [5]) is 5.96; on human H3 receptor [1] (radioligand binding assay employing [3H](R)-α-methylhistamine, read-out: Ki, affinity for the human H3 receptor), 5.98. For the same molecule, the inhibition at 10 µM in data set [3] was in the range of 50 to 60%. For the same molecule, the pIC50 on human H3 receptor [2] (setting [6]) was 5.62; at human H3 receptor [2] (read-out: IC50, human H3 antagonist) it was 5.63; at human H3 receptor [2] (text of b259, read-out: IC50, human H3 antagonist), 5.63. The “other modest activities (other GPCRs and ion channels)” value in data set [4] is recorded as 50-60%.

For `O=C(NCCc1ccc(OCCN2CCCC2)c(Br)c1)c1cccc(Br)c1` [3-bromo-N-(3-bromo-4-(2-(pyrrolidin-1-yl)ethoxy)phenethyl)benzamide], the pKi at human H3 receptor [1] (setting [5]) was 6.68. In addition, the pIC50 at human H3 receptor [2] (setting [6]) was 6.35.

Consider `CN(C)CCOc1ccc(CCNC(=O)c2ccc[nH]2)cc1Br` [N-(3-bromo-4-(2-(dimethylamino)ethoxy)phenethyl)-1H-pyrrole-2-carboxamide], for which, at human H3 receptor [1] (setting [5]), the pKi is 5.82. Besides, the negative-log IC50 (pIC50) at human H3 receptor [2] (setting [6]) was 5.47.

`O=C(NCCc1ccc(OCCN2CCCC2)c(Cl)c1)c1cc(Br)cs1` [4-bromo-N-(3-chloro-4-(2-(pyrrolidin-1-yl)ethoxy)phenethyl)thiophene-2-carboxamide]: the negative-log Ki (pKi) at human H3 receptor [1] (setting [5]) is 6.80. For the same molecule, the pIC50 at human H3 receptor [2] (setting [6]) is 6.46.

With `O=C(NCCc1ccc(OCCN2CCCC2)c(Br)c1)c1cnco1` [N-(3-bromo-4-(2-(pyrrolidin-1-yl)ethoxy)phenethyl)oxazole-5-carboxamide], on human H3 receptor [1] (setting [5]), the negative logarithm of the Ki (pKi) is 7.43. The pIC50 at human H3 receptor [2] (setting [6]) is 7.08.

Turning to `O=C(NCCc1ccc(OCCN2CCCC2)c(Br)c1)c1cc(Br)c[nH]1` [4-bromo-N-(3-bromo-4-(2-(pyrrolidin-1-yl)ethoxy)phenethyl)-1H-pyrrole-2-carboxamide], the negative-log Ki (pKi) on human H3 receptor [1] (setting [5]) was 6.72. In addition, the pIC50 at human H3 receptor [2] (setting [6]) is 6.37.

For `O=C(NCCc1ccc(OCCN2CCCC2)c(Br)c1)c1cccc(Cl)c1` [N-(3-bromo-4-(2-(pyrrolidin-1-yl)ethoxy)phenethyl)-3-chlorobenzamide], on human H3 receptor [1] (setting [5]), the pKi is 6.60. Also, the negative logarithm of the IC50 (pIC50) on human H3 receptor [2] (setting [6]) is 6.26.

Regarding `CN(C)CCOc1ccc(CCNC(=O)c2cc(Br)cs2)cc1Br` [4-bromo-N-(3-bromo-4-(2-(dimethylamino)ethoxy)phenethyl)thiophene-2-carboxamide], the pKi on human H3 receptor [1] (setting [5]) was 6.17. Moreover, at human H3 receptor [2] (setting [6]), the pIC50 is 5.82.

On to `O=C(NCCc1ccc(OCCN2CCCC2)c(Br)c1)c1ccc[nH]1` [N-(3-bromo-4-(2-(pyrrolidin-1-yl)ethoxy)phenethyl)-1H-pyrrole-2-carboxamide], for which the pKi at human H3 receptor [1] (setting [5]) is 6.82. In addition, the negative-log IC50 (pIC50) on human H3 receptor [2] (setting [6]) was 6.42.

For the molecule “N-(3-bromo-4-(2-(pyrrolidin-1- yl)ethoxy)phenethyl)thiazole-5-carboxamide”, the negative logarithm of the Ki (pKi) at human H3 receptor [1] (setting [5]) is 7.49. Further, the pIC50 at human H3 receptor [2] (setting [6]) is 7.14.

Turning to `CN1CCCC(COc2ccc(CCNC(=O)c3cc(Br)cs3)cc2Br)C1` (stereo not shown) [4-bromo-N-(3-bromo-4-((1-methylpiperidin-3-yl)methoxy)phenethyl)thiophene-2-carboxamide], the negative-log Ki (pKi) at human H3 receptor [1] (setting [5]) is 5.92. Besides, the pIC50 at human H3 receptor [2] (setting [6]) was 5.77.

On to `O=C(NCCc1ccc(OCCN2CCCC2)c(Br)c1)c1cccc(C(F)(F)F)n1` [N-(3-bromo-4-(2-(pyrrolidin-1-yl)ethoxy)phenethyl)-6-(trifluoromethyl)picolinamide], for which the pKi at human H3 receptor [1] (setting [5]) was 6.57. For the same molecule, at human H3 receptor [2] (setting [6]), the pIC50 is 6.25.

Regarding `C[C@@H]1CCCN1CCOc1ccc(CCNC(=O)c2cc(Br)cs2)cc1Br` [(R)-4-bromo-N-(3-bromo-4-(2-(2-methylpyrrolidin-1-yl)ethoxy)phenethyl)thiophene-2-carboxamide], the pKi on human H3 receptor [1] (setting [5]) is 6.51. Also, the pIC50 on human H3 receptor [2] (setting [6]) is 6.15.

As for `O=C(NCCc1ccc(OCCN2CCCC2)c(Br)c1)c1cccc(C(F)(F)F)c1` [N-(3-bromo-4-(2-(pyrrolidin-1-yl)ethoxy)phenethyl)-3-(trifluoromethyl)benzamide], the negative logarithm of the Ki (pKi) at human H3 receptor [1] (setting [5]) was 6.36. The negative-log IC50 (pIC50) on human H3 receptor [2] (setting [6]) is 6.01.

As to `O=C(NCCc1ccc(OCCN2CCCC2)c(Br)c1)c1nnc[nH]1` [N-(3-bromo-4-(2-(pyrrolidin-1-yl)ethoxy)phenethyl)-4H-1,2,4-triazole-3-carboxamide], at human H3 receptor [1] (setting [5]), the pKi was 6.37. For the same molecule, on human H3 receptor [2] (setting [6]), the pIC50 was 6.01.

Regarding `O=C(NCCc1ccc(OCCN2CCCC2)c(Br)c1)c1cc(Br)cs1` [4-bromo-N-(3-bromo-4-(2-(pyrrolidin-1-yl)ethoxy)phenethyl)thiophene-2-carboxamide], the negative logarithm of the Ki (pKi) on human H3 receptor [1] (setting [5]) is 7.10. Further, the pIC50 on human H3 receptor [2] (setting [6]) is 6.74.

Consider `CN1CCCC(COc2ccc(CCNC(=O)c3cccn3C)cc2Br)C1` (stereo not shown) [N-(3-bromo-4-((1-methylpiperidin-3-yl)methoxy)phenethyl)-1-methyl-1H-pyrrole-2-carboxamide], for which the negative logarithm of the Ki (pKi) at human H3 receptor [1] (setting [5]) is 6.04. Also, at human H3 receptor [2] (setting [6]), the pIC50 was 5.68.

As to `Cn1cccc1C(=O)NCCc1ccc(OCCN2CCCC2)c(Br)c1` [N-(3-bromo-4-(2-(pyrrolidin-1-yl)ethoxy)phenethyl)-1-methyl-1H-pyrrole-2-carboxamide], the pKi on human H3 receptor [1] (setting [5]) is 6.89. For the same molecule, the pIC50 at human H3 receptor [2] (setting [6]) was 6.41.

For `CN(C)CCOc1ccc(CCNC(=O)c2cccn2C)cc1Br` [N-(3-bromo-4-(2-(dimethylamino)ethoxy)phenethyl)-1-methyl-1H-pyrrole-2-carboxamide], the negative logarithm of the Ki (pKi) at human H3 receptor [1] (setting [5]) was 5.68. Besides, on human H3 receptor [2] (setting [6]), the pIC50 is 5.35.

`O=C(NCCc1ccc(OCCN2CCCC2)c(Br)c1)c1ccc(Br)o1` [5-bromo-N-(3-bromo-4-(2-(pyrrolidin-1-yl)ethoxy)phenethyl)furan-2-carboxamide]: the pKi on human H3 receptor [1] (setting [5]) is 6.77. Moreover, the pIC50 on human H3 receptor [2] (setting [6]) is 6.41.

On to `CN(C)CCCOc1ccc(CCNC(=O)c2cccn2C)cc1Br` [N-(3-bromo-4-(3-(dimethylamino)propoxy)phenethyl)-1-methyl-1H-pyrrole-2-carboxamide], for which the pKi at human H3 receptor [1] (setting [5]) is 5.77. For the same molecule, the pIC50 on human H3 receptor [2] (setting [6]) is 5.41.

For the molecule `C[C@H]1CCCN1CCOc1ccc(CCNC(=O)c2cc(Br)cs2)cc1Br` [(S)-4-bromo-N-(3-bromo-4-(2-(2-methylpyrrolidin-1-yl)ethoxy)phenethyl)thiophene-2-carboxamide], at human H3 receptor [1] (setting [5]), the pKi is 6.48. The pIC50 at human H3 receptor [2] (setting [6]) is 6.12.

For the molecule `CN1CCCC(COc2ccc(CCNC(=O)c3cc(Br)c[nH]3)cc2Br)C1` (stereo not shown) [4-bromo-N-(3-bromo-4-((1-methylpiperidin-3-yl)methoxy)phenethyl)-1H-pyrrole-2-carboxamide], the pKi at human H3 receptor [1] (setting [5]) is 5.89. The pIC50 on human H3 receptor [2] (setting [6]) is 5.54.

Regarding `O=C(NCCc1ccc(OCCN2CCCC2)c(Br)c1)c1nccs1` [N-(3-bromo-4-(2-(pyrrolidin-1-yl)ethoxy)phenethyl)thiazole-2-carboxamide], the pKi at human H3 receptor [1] (setting [5]) was 6.94. On human H3 receptor [2] (setting [6]), the negative-log IC50 (pIC50) was 6.59.

Consider `CN(C)CCCOc1ccc(CCNC(=O)c2cc(Br)cs2)cc1Br` [4-bromo-N-(3-bromo-4-(3-(dimethylamino)propoxy)phenethyl)thiophene-2-carboxamide], for which the negative logarithm of the Ki (pKi) on human H3 receptor [1] (setting [5]) was 5.80. For the same molecule, at human H3 receptor [2] (setting [6]), the pIC50 is 5.44.

With `O=C(NCc1ccc(OCCN2CCCC2)c(Cl)c1)c1cc(Br)cs1` [4-bromo-N-(3-chloro-4-(2-(pyrrolidin-1-yl)ethoxy)benzyl)thiophene-2-carboxamide], at human H3 receptor [1] (setting [5]), the pKi was 5.96. Moreover, on human H3 receptor [2] (setting [6]), the pIC50 was 5.62.

Take `O=C(NCCc1ccc(OCCN2CC[C@@H](F)C2)c(Br)c1)c1cc(Br)cs1`: the pKi on human H3 receptor [1] (setting [5]) was 5.96. In addition, the negative logarithm of the IC50 (pIC50) at human H3 receptor [2] (setting [6]) was 5.68.

In the case of `O=C(NCCc1ccc(OCCN2CC[C@H](F)C2)c(Br)c1)c1cc(Br)cs1` [(S)-4-bromo-N-(3-bromo-4-(2-(3-fiuoropyrrolidin-1-yl)ethoxy)phenethyl)thiophene-2-carboxamide], the pKi on human H3 receptor [1] (setting [5]) was 5.96. Further, the pIC50 on human H3 receptor [2] (setting [6]) was 5.60.

With `CN(C)CCCOc1ccc(CCNC(=O)c2ccc(Br)o2)cc1Br` [5-bromo-N-(3-bromo-4-(3-(dimethylamino)propoxy)phenethyl)furan-2-carboxamide], at human H3 receptor [1] (setting [5]), the negative-log Ki (pKi) is 5.66. For the same molecule, at human H3 receptor [2] (setting [6]), the negative logarithm of the IC50 (pIC50) is 5.32.

Take `CN1CCCC(COc2ccc(CCNC(=O)c3ccc(Br)o3)cc2Br)C1` (stereo not shown) [5-bromo-N-(3-bromo-4-((1-methylpiperidin-3-yl)methoxy)phenethyl)furan-2-carboxamide]: on human H3 receptor [1] (setting [5]), the negative-log Ki (pKi) was 5.68. Moreover, the negative-log IC50 (pIC50) at human H3 receptor [2] (setting [6]) was 5.35.

On to `CN(C)CCOc1ccc(CCNC(=O)c2ccc(Br)o2)cc1Br` [5-bromo-N-(3-bromo-4-(2-(dimethylamino)ethoxy)phenethyl)furan-2-carboxamide], for which the negative logarithm of the Ki (pKi) at human H3 receptor [1] (setting [5]) was 5.57. The pIC50 on human H3 receptor [2] (setting [6]) is 5.23.

With `CN(C)CCOc1ccc(CCNC(=O)c2cc(Br)c[nH]2)cc1Br` [4-bromo-N-(3-bromo-4-(2-(dimethylamino)ethoxy)phenethyl)-1H-pyrrole-2-carboxamide], the pKi on human H3 receptor [1] (setting [5]) was 5.80. For the same molecule, at human H3 receptor [2] (setting [6]), the pIC50 is 5.43.

`CN(C)CCCOc1ccc(CCNC(=O)c2ccc[nH]2)cc1Br` [N-(3-bromo-4-(3-(dimethylamino)propoxy)phenethyl)-1H-pyrrole-2-carboxamide]: the pKi at human H3 receptor [1] (setting [5]) was 5.89. Also, at human H3 receptor [2] (setting [6]), the pIC50 was 5.54.
